Test results as given in US8338616B2, “Thiazoliums and their use for treating protein aging associated diseases” (Beijing Molecule Science And Technology Co., Ltd., priority 2008, dated 2012).
Where two headings read alike, the source gives them in different places. Marks after values point to notes of the source that are not given here.

Legend:
[1] = tested on: tail collagen of diabetic rats; conditions: diabetic model 19.7±7.2
Description: Tail tendon collagen fibrils were taken out under ice-bath, washed with physiological saline, peeled off non-collagen tissues, lyophilized and stored at −70° C. for standby use.
The lyophilized tail collagen was cut into pieces, 2 mg of tail collagen was precisely weighed, added with 10 μg/ml pepsin (solvent: 0.5 mol/L acetic acid) to reach a final concentration of 5 μg pepsin/mg tail collagen, shanken at 4° C. for 2 h, centrifuged at 40000 g for 60 min, after the volume of supernatant was precisely measured, 500 μl of supernatant and total deposition were separately transferred into 5 ml ampules, added with 6 mol/L HCl, sealed, placed in calorstat oven, and hydrolyzed at 110° C. for 24 h.
Measurement of hydroxyproline concentration in the hydrolysis solution: (1) 100 μl of hydrolysis solution was taken from each of ampules, added with about 50 μl 10 mol/L NaOH to pH 6.0, and citric acid buffer solution (50 g citric acid.H2O, 72.36 g anhydrous sodium acetate, 34 g NaOH, 11.52 ml glacial acetic acid were mixed and added with water to 1200 ml, and added with 300 ml n-propanol) 850 μl. […] (4) 10% P-DMAB (1 g p-dimethylaminobenzaldehyde, added with 3.15 mol/L perchloric acid 2.6 ml to dissolve, then diluted with n-propanol to 10 ml, ready to use) 500 μl was added, mixed quickly at 75° C. water-bath for 10 min. […]

diabetic rats = conditions: for CO / Cl / Diastolic pressure / Heart rate / SAC / Systolic pressure / TPR / TPR index / Organ parameters: Heart / Organ parameters: Heart ventricle / Organ parameters: Left kidney / Organ parameters: Left ventricle / Organ parameters: Right kidney: diabetic rats; for CO / Cl / Diastolic pressure / Heart rate / SAC / Systolic pressure / TPR / TPR index: 4 weeks; for Organ parameters: Heart / Organ parameters: Heart ventricle / Organ parameters: Left kidney / Organ parameters: Left ventricle / Organ parameters: Right kidney: dose not given
Description: Rats were anesthetized with pentobarbital sodium injection (0.8%, 50 mg/kg), subjected to tracheal cannula, heparin anticoagulation, right common carotid artery cannula, communicated with Biopac physiological recorder via is pressure transducers to record blood pressure; subjected to thoracotomy at middle of sternum, separation of ascending aorta which was covered with pulse Doppler probe, and the pulse Doppler rheometer was linked to the Biopac physiological recorder for real-time recording and calculating hemodynamic parameters by the software of Biopac (Acknowledge, Version 3): systolic blood pressure (SBP), diastolic blood pressure (DBP), heart rate (HR), cardiac output
(CO), cardiac index (CI), total peripheral resistance (TPR), total peripheral resistance index (TPR Index), stroke volume (SV) and system arterial compliance (SAC), etc. After 10 min of postoperative stabilization, these parameters were recorded continuously, and mean values for 30 s were used as the measured values of these parameters.
Formula for calculating some of hemodynamic parameters: TPR=mean arterial pressure (MAP)/CO SAC=SV/(SBP−DBP)

[2] = tested on: IgG cross-linked on red blood cell surface; conditions: RBC of diabetic rats
Description: In vitro administration: 0.1 mol/L isoosmia PBS (pH7.4) was used as negative control, and it was used as solvent to form drug solutions of the compounds to be tested with different concentrations. Per 900 μl drug solution or solvent control was added with 100 μl RBC, slightly shaken at 37° C. for 16-18 h; centrifuged at 1000 g and 4° C. for 3 min, supernatant was discarded, 0.1 mol/L is PBS (pH7.4) was used to wash plate for 4 times to remove residual compound;
centrifuged at 1000 g and 4° C. for 3 min, a lower layer of RBC was obtained, diluted by 1:100 and used for ELISA assay.
Immunoadsorption assay protocol for IgG content cross-linked on RBC surface: Multiscreen-HA 0.45 μm 96 well microtiter plate (Millipore) was blocked with Superblock (300 μl/well) at 37° C. for 1 h; then dried at a reduced pressure of 5 mmHg, the plate was washed with PBST for 3 time, with 0.1 MPBS (pH7.4) for 3 times, and the plate was shaken for 1 min per time; the RBC to be tested was added (50 μl/well), and PBS background control wells were set (OD0); dried by suction at a reduced pressure; washed with 0.1mol/L PBS (pH7.4) 150 μl for 4 time, the plate was shaken for 1 min per time. After dried by suction at a reduced pressure, 1:500 diluted goat anti-mouse IgG-HRP (50 μl/well) was added, stood at room temperature for 2 h, dried by suction; washed with 0.1 mol/L PBS (pH7.4) 150μl/well for 3 times, the plate was shaken for 1 min per time; dried by suction; o-phenylene diamine (OPD) substrate coloration solution (100 μl/well) was added, stood at room temperature for 30 min under protection from light, the reaction was terminated with 2 mol/L H2SO4 (100 μl/well); the reaction liquid was quickly drawn off (150 μl/well) and transferred to a normal 96 well enzyme labeled plate, and OD values were measured at 490 nm.
Corrected OD=average OD of RBC sample to be tested−average OD of PBS background wells without RBC, the breaking rate of the compounds is expressed as the percentages of OD490 nm decrease: (OD490 nm of PBS wells−OD490 nm of the compound to be tested)/OD490 nm of PBS wells×100%.

[3] = tested on: AGE-BSA-collagen cross-links; conditions: n = 5
Description: AGE cross-link structures were prepared in vitro by cross-linking AGE-BSA to rat tail collagen coated on a 96 well ELISA plate. A ELISA method was used to evaluate the breaking effect of the compounds on AGE cross-links.
Normal Wister rats (body weight of 200±20 g) were sacrificed acutely, the tails were excised, and tail collagen was prepared at a temperature of 4° C. as follows. Tail tendon collagen fibrils were taken out, washed with physiological saline, peeled off non-collagen fibril tissues, rinsed with double-distilled water 3 times, cut into pieces, and immersed in 0.1% glacial acetic acid at 4° C. for one week during which it was shaken frequently. […] After dilution, the protein content was measured. […]
A solution containing 50 mg/ml of bovine serum albumin BSA (V) (Roch) and 0.5M of glucose in 0.2M PBS (pH 7.4) was incubated in dark at 37° C. under sterile condition for 3-4 months, to thereby form glycosylated BSA, i.e. BSA-AGE. […] Fluorescence scanning (Exi/Em (395/460 nm)) and SDS-PAGE were used to check the formation of BSA-AGE, and protein concentration was determined by the Lowery method.
The tail collagen coated 96 well ELISA plates were full-well treated with PBS (pH 7.4) for 1 hour to neutralize the acidic collagen. […] Within 10 minutes after the reaction, optical density (OD) was read at 450 nm on the BOBRAD Model 550 plate reader with the blank wells of the plates was set to 0. […]

## Cc1csc[n+]1CC(=O)O.[Na+] [A, 3-carboxymethyl-4-methyl-thiazolium bromide sodium]
[1]; A 18 mg/kg
  tail collagen dissolubility: 33.7±17.8%
[1]; A 36 mg/kg
  tail collagen dissolubility: 37.5±11.1%
other
  melting point: 182 °C
Diabetic rats; 9 mg/kg i.g.
  CO: 84.9 ± 13.6 mL/min
  Cl: 0.194 ± 0.031 ml/min per cm^2
  Diastolic pressure: 68.8 ± 14.0 mmHg
  Heart rate: 265.2 ± 25.8^ beats/min
  SAC: 9.05 ± 1.44** 10^−3 ml/mmHg
  Systolic pressure: 105.3 ± 12.0 mmHg
  TPR: 78.6 ± 19.7** 10^3 · dyne · sec/cm^5
  TPR index: 181.6 ± 51.3 dyne · sec/cm^3
Diabetic rats; 18 mg/kg i.g.
  CO: 79.2 ± 10.6 mL/min
  Cl: 0.179 ± 0.026 ml/min per cm^2
  Diastolic pressure: 72.8 ± 17.2 mmHg
  Heart rate: 282.2 ± 31.9^ beats/min
  SAC: 8.02 ± 1.27** 10^−3 ml/mmHg
  Systolic pressure: 108.7 ± 14.7 mmHg
  TPR: 87.4 ± 22.3* 10^3 · dyne · sec/cm^5
  TPR index: 198.2 ± 56.2 dyne · sec/cm^3
Diabetic rats; 36 mg/kg i.g.
  CO: 77.7 ± 10.0 mL/min
  Cl: 0.179 ± 0.024 ml/min per cm^2
  Diastolic pressure: 60.7 ± 16.1 mmHg
  Heart rate: 261.0 ± 32.3^ beats/min
  SAC: 7.92 ± 1.11* 10^−3 ml/mmHg
  Systolic pressure: 99.2 ± 13.2 mmHg
  TPR: 77.0 ± 19.6** 10^3 · dyne · sec/cm^5
  TPR index: 176.4 ± 44.6 dyne · sec/cm^3
Diabetic rats; first of three A lines
  Organ parameters: Heart: 3.42 g/g × 10^-3
  Organ parameters: Heart ventricle: 2.99 g/g × 10^-3
  Organ parameters: Left kidney: 5.20 g/g × 10^-3
  Organ parameters: Left ventricle: 2.29 g/g × 10^-3
  Organ parameters: Right kidney: 5.33 g/g × 10^-3
Diabetic rats; second of three A lines
  Organ parameters: Heart: 3.44 g/g × 10^-3
  Organ parameters: Heart ventricle: 3.01 g/g × 10^-3
  Organ parameters: Left kidney: 5.16 g/g × 10^-3
  Organ parameters: Left ventricle: 2.34 g/g × 10^-3
  Organ parameters: Right kidney: 5.22 g/g × 10^-3
Diabetic rats; third of three A lines
  Organ parameters: Heart: 3.44 g/g × 10^-3
  Organ parameters: Heart ventricle: 3.03 g/g × 10^-3
  Organ parameters: Left kidney: 5.07 g/g × 10^-3
  Organ parameters: Left ventricle: 2.32 g/g × 10^-3
  Organ parameters: Right kidney: 5.19 g/g × 10^-3
Diabetic rats; long-term diabetic rats, 4 weeks of administration
  effect on angiosclerosis: improving angiosclerosis
[2]; 1 μM
  Breaking rate (OD decrease, %): 25.6 ± 2.1%
[2]; 10 μM
  Breaking rate (OD decrease, %): 26.9 ± 3.0%
[2]; 30 μM
  Breaking rate (OD decrease, %): 21.6 ± 5.0%
[2]; 100 μM
  Breaking rate (OD decrease, %): 26.0 ± 2.7%
[3]; 0.01 umol/L
  Breaking rate (decrease % in OD): 8.1 ± 4.76, n =5%
[3]; 0.1 umol/L
  Breaking rate (decrease % in OD): 11.3 ± 7.70, n = 5%
